Data from ChEMBL document CHEMBL1140521, “Enhanced efficacy of 7-hydroxy-3-methoxycadalene via glycosylation in in vivo xenograft study” (Bioorg Med Chem Lett, 2007).

What was measured:
A549 [1] = experiment: Cytotoxicity against human A549 cells after 24 hrs by WST8 assay; type: functional, cell-based; settings: A549, 24 h
HeLa = experiment: Cytotoxicity against human HeLa cells after 24 hrs by WST8 assay; type: functional, cell-based
A549 [2] = experiment: Antitumor activity against human A549 cells xenografted athymic BALB/c mouse assessed as reduction in tumor volume at 100 mg/kg/day, po for 28 days; type: functional; design: scale not given: the % may be the effect or the level left

Q: `COc1cc(C)c2cc(O)c(C)cc2c1C(C)C` [CADALENE] was tested. Which IC50 (A549 [1]) did it give?
A: Its IC50 is 34.9 µM.

Q: What about the IC50 (HeLa) of the same compound?
A: The IC50 was 28.3 µM.

Q: What does the source list for `COc1cc(C)c2cc(OCCO[C@H]3O[C@H](CO)[C@@H](O)[C@H](O)[C@H]3O)c(C)cc2c1C(C)C`?
A: IC50 (A549 [1]): 129 µM; IC50 (HeLa): 161 µM; Activity (A549 [2]): 25%

Q: What does the source list for `COc1cc(C)c2cc(O[C@@H]3O[C@H](CO)[C@@H](O)[C@H](O)[C@H]3O)c(C)cc2c1C(C)C`?
A: IC50 (A549 [1]): 194 µM; IC50 (HeLa): 231 µM; Activity (A549 [2]): 50%
